Test results: publication PMC6422238, “Absence of a human ortholog of rodent Kupffer cell galactose-binding receptor encoded by the CLEC4f gene” (Glycobiology, 2019)

Key:
[1] = biological target: T1, Bovine CLEC4f protein (Bos taurus, UniProt A0AAA9RVQ7); assay: affinity chromatography on galactose-Sepharose; type: binding; conditions: immobilised galactose (divinyl sulfone coupling); 25 mM CaCl2, 150 mM NaCl, pH 7.8; Ca2+-dependent, eluted with EDTA
T1 construct: C-terminal fragment of the extracellular domain (neck + CRD), E. coli BL21(DE3) inclusion bodies, renatured; 35 kDa calculated; trimer; borders only in supplement
T1 sequence (A0AAA9RVQ7 274-591 limits assumed): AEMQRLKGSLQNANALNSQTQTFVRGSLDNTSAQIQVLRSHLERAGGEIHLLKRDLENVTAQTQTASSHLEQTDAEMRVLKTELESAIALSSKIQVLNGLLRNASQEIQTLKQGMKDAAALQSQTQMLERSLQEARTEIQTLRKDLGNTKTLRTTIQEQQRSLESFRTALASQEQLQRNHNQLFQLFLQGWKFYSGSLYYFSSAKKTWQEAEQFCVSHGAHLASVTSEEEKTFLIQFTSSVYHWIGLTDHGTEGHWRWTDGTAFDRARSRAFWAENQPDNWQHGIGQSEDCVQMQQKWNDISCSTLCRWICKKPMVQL

[2] = biological target: T2, Murine CLEC4f protein; murine Kupffer cell receptor (Mus musculus, UniProt P70194); assay: affinity re-purification of the labelled protein on galactose-Sepharose; type: binding; conditions: immobilised galactose; 25 mM CaCl2, 150 mM NaCl, pH 7.8; eluted with EDTA; fluorescein-labelled protein
T2 construct: fluorescein isothiocyanate labelled
T2 sequence (P70194 70-548 limits assumed): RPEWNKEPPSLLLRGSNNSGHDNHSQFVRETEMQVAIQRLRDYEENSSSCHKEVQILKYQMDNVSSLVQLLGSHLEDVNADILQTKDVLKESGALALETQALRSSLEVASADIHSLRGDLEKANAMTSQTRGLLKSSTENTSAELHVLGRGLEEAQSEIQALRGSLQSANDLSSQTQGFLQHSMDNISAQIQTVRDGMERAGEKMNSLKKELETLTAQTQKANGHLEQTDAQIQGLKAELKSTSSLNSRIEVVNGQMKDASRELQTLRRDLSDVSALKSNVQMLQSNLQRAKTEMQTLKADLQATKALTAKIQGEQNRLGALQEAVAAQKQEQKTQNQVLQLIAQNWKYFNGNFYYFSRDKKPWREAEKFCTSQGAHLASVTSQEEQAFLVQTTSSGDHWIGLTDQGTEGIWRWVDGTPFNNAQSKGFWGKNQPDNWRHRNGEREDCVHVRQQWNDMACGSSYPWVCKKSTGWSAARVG

In the case of OC[C@H]1OC(O)[C@H](O)[C@@H](O)[C@H]1O (some centres unmarked) [galactose], the “affinity chromatography on galactose-Sepharose” value [1] is reported as “confirming that it has galactose-binding activity” and the “affinity re-purification of the labelled protein on galactose-Sepharose” value [2] is reported as “the chimpanzee, bovine and murine proteins all bind to galactose”.
